We go through six compounds from PMC11003484 (Journal of Enzyme Inhibition and Medicinal Chemistry, 2023).

Counter-ions that a name gives are not always drawn. Bounds are passed on as bounds.

One data set has as its system p6 HEV-Luc Replicon. As to the kind of experiment: HEV replicon (p6 HEV-Luc) luciferase assay in Huh7 cells. It counts as cell-based. The following applies: Hepatitis E virus, Huh-7, 72 h, read-out: IC50 HEV replicon luciferase activity. The text has this: (§1) For transfection, pSHEV-3 (cDNA clone of HEV genotype 3; accession no. AY575859.1) was linearised using Xba I (New England BioLabs). The helicase region of GT1 and GT3 share greater than 90% sequence homology Sub-genomic HEV carrying luciferase gene (accession number JQ679013) was linearised for replicon assay with MluI. The linearised DNA was subjected to in vitro transcription, as mentioned previously[26]^,[36], and the RNA was transfected in Huh7 cells using Lipofectamine 3000 (Invitrogen, Carlsbad, CA). Briefly, a day before transfection, approximately 0.8 × 10^6 cells were seeded in each well of a six-well plate, and for HEV replicon assay, ∼5–7 × 10[3] cells were seeded in each well of 96 plate. After 24 h, the media was removed, the cells were washed twice with Opti-MEM media (Gibco™, Grand Island, NY), and the transfection mixture was prepared as mentioned earlier[25]^,[26]. The cells were incubated with a transfection mixture for 6–8 h at 37 °C.
Following transfection, the cells were incubated with inhibitors for 72 h at 37 °C in a CO2 incubator. […] The cells were then lysed according to the manufacturer’s protocol, and the luminescence was recorded on Tecan Spark® (Tecan Trading AG, Switzerland) multimode plate reader. In replicon, the luminescence was normalised w.r.t to uninfected (0%) and untreated cells (100%).

In data set [1] the test system is HEV replication (ORF2 expression). As to the kind of experiment: microbe, parasite or virus in culture. It counts as cell-based, Hepatitis E Virus.
Text: as §1
For IFA, the cells were grown on a 96-well plate and transfected using Lipofectamine, as mentioned above. […] The cells were incubated for 4–5 d, and subsequently, the media was removed, and the cells were carefully washed twice with 1X PBS. The cells were fixed with 4% paraformaldehyde (PFA) and incubated for 5–10 min at RT. After fixing, the cells were again washed with 1× PBS, and the permeabilisation was performed using PBS with 0.1% Triton-X and 0.1% BSA (Bovine Serum Albumin, HiMedia, Mumbai, India). The blocking was performed using 3% BSA for 1 h at RT. After blocking, the cells were incubated with anti-HEV-ORF2 (Dilution, 1:400) antibody against the HEV capsid protein for 1 h at RT. The cells were washed thrice with PBS-T (Tween-20, 0.05%, Sigma Aldrich). The Goat-Anti-Rabbit Alexa Fluor 488 (Thermo Fisher) was used as a secondary antibody, and the cells were incubated for 30 min in the dark. The cells were washed thrice with PBS-T and stained with DAPI (Invitrogen™). […]

A further data set relates to Huh7 cells. Here is the method:
To study the cell viability, Huh7 cells were grown in Dulbecco’s Modified Eagle Medium (DMEM, Gibco™, Life Technologies, Grand Island, NY), supplemented with 10% Foetal Bovine Serum (FBS, Gibco™, Qualified, Brazil origin). Further, Huh7 cells were seeded in a 96-well plate (∼0.7 × 10^4 cells/well) and incubated at 37 °C in a humidified 5% CO2 incubator. […] After 4 d, the MTT (3-dimethylthiazol-2-yl-diphenyl tetrazolium bromide) assay was performed per the manufacturer’s protocol (Himedia Laboratories, Thane, India). Cell viability percentage was calculated by comparing treated cells with untreated cells.

Data set [2] deals with T1, HEV helicase (Hepatitis E virus genotype 1, UniProt P33424).
T1 construct: The HEV helicase (735 bp) was amplified from the HEV (genotype 1; AF444002.1) cDNA clone; made in house; host or cells: E. coli BL21(DE3), pET28a; solubilised from inclusion bodies with NLS
As to the kind of experiment: Double-stranded RNA unwinding activity / inhibition assay (fluorescence). It counts as biochemical. The note with it: dsRNA unwinding, purified helicase, RT. From the text: (§2) The HEV helicase (735 bp) was amplified from the HEV (genotype 1; accession no. AF444002.1) cDNA clone pSK-HEV-2[23]^,[25] using the forward and reverse primers sets (5′agcc|atatgggttgccgtgtgacc3′ and 5′gtgc|tcgagttaaaagaagttgttcac3′). Following standard laboratory procedures, the amplified gene was cloned in the pET28a vector between NdeI and Xho I restriction sites. The cloning was verified using colony PCR using Nde I and Xho I (New England BioLabs, Ipswich, MA) double digestion and DNA sequencing. The recombinant plasmid was further transformed to BL21(DE3) using the routine protocol for expressing HEV helicase. The transformed recombinant BL21 cells were expanded until the culture’s optical density (OD600 nm) reached 0.6 before being induced with 0.4 mM IPTG (Sigma Aldrich, St. Louis, MO) at 26 °C for 4 h. The protein solubilisation was carried out as described previously. The Immobilised Metal Affinity Chromatography (IMAC) was used to purify the solubilised protein, and the protein was eluted in a buffer containing 10 mM Tris–Cl (pH 8.0), (Sigma Aldrich), 100 mM NaCl (Sigma Aldrich), 250 mM imidazole, and 0.1% N-lauryl Sarcosine (NLS; Sigma Aldrich). Further, the buffer of purified protein was exchanged with 10 mM Tris–Cl (pH 8.0), 100 mM NaCl, and 0.08% NLS before proceeding with enzyme assays.
(§3) All the experiments were performed in triplicates, and the graphs were plotted using GraphPad Prism software (Boston, MA).

Data set [3] addresses T1, HEV helicase. As to the kind of experiment: biochemical. It counts as biochemical.
Text: as §2
The NTPase activity of the HEV helicase enzyme was performed using a colorimetric-based Malachite green test[27]. The assay followed the manufacturer’s instructions The malachite green assay was performed as per the manufacturer’s protocol (Sigma Aldrich) cat no MAK307-1KT. The assay operates on the phosphate release from the reaction between malachite green and molybdate (AM/MG reagent) as the basis for complexation. […] The absorbance was measured on plate reader and a standard curve was generated using known concentrations of phosphate ranging from 0 to 44 uM to correlate absorbance with released phosphate concentration. The absorbance was plotted on Y-axis against the phosphate concentration on X-axis, and a straight-line equation (Y = 0.02182 * X + 0.04158) was determined using linear regression in GraphPad Prism version 9.0 (Boston, MA). The graphs were plotted as a function of the concentration of phosphate released. The effects of pH, temperature, enzyme concentration, and substrate concentration on helicase enzyme activity were studied to optimise enzyme activity.
Based on their docking score, hydrogen bonds, and protein–ligand interaction, the five selected compounds from virtual screening were tested for their ability to suppress NTPase activity. The putative inhibitors’ concentrations ranged from 0 to 10 µM during the optimisation-focused inhibition tests on the purified protein’s NTPase activity. […] The working reagent was added after the reaction mixture had been incubated at RT for 10 min, and the absorbance was measured at 600 nm.
as §3

Setting [4] is: read-out: IC50 (µM) NTPase activity.

T1 sequence (P33424 960-1204): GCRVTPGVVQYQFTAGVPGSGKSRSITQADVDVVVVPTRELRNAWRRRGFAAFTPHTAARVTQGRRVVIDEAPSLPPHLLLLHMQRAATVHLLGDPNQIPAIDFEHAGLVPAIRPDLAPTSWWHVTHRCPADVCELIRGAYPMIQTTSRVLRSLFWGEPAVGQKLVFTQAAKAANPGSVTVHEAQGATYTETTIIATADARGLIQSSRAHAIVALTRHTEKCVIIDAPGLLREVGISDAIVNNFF

In the case of `CN(Cc1cnc2nc(N)nc(N)c2n1)c1ccc(C(=O)N[C@@H](CCC(=O)O)C(=O)O)cc1` [Methotrexate], the IC50 in the data set on p6 HEV-Luc Replicon is 0.0731 ± 0.0127 µM. Also, in data set [1] (50 nM Mtx), the “HEV replication inhibition (IFA)” value is listed as roughly 81%. The “fluorescence level (ORF2, IFA)” value in data set [1] (100 nM methotrexate, untreated 100%) is listed as roughly 6%. Also, the inhibition at 0.1 µM in data set [1] (Hepatitis E virus, Huh-7, read-out: inhibition of HEV replication (IFA)) is roughly 94%. Moreover, the “Cytotoxicity (MTT assay)” value in the data set on Huh7 cells is listed as less than 100 nM.
As for `O=C(O)c1cc(=O)c2c(OCC(O)COc3cccc4oc(C(=O)O)cc(=O)c34)cccc2o1` [Disodium cromoglycate, disodium cromoglycate], the results for the IC50 against HEV helicase [2] and on HEV helicase [3] (setting [4]) were 39.8 µM and 14.8 µM, respectively.
Turning to `Nc1nc2c(ncn2C2OC(COP(=O)(O)OP(=O)(O)OP(=O)(O)O)C(O)C2O)c(=O)[nH]1` (centres unmarked) [GTP], the Km at HEV helicase [3] (read-out: Km (substrate, NTPase activity), GTP 0 to […], Michaelis-Menten fit) worked out at 350 µM.
Turning to `COc1cccc2c1C(=O)c1c(O)c3c(c(O)c1C2=O)C[C@@](O)(C(C)=O)C[C@@H]3O[C@H]1C[C@H](N)[C@H](O)[C@H](C)O1` [Daunorubicin HCL, daunorubicin HCL], the results for the IC50 on HEV helicase [2] and at HEV helicase [3] (setting [4]) were 8.25 µM and 7.66 µM, respectively.
Take `CN1c2c(nc(N)[nH]c2=O)NC[C@@H]1CNc1ccc(C(=O)N[C@@H](CCC(=O)O)C(=O)O)cc1` [Levomefolic acid, 5-methyltetrahydrofolate (levomefolic acid)]: the IC50 against HEV helicase [2] worked out at 13.9 µM; against HEV helicase [3], 3.65 µM.
In the case of `C[C@]12C=CC(=O)C=C1CC[C@@H]1[C@@H]2[C@@H](O)C[C@@]2(C)[C@H]1CC[C@]2(O)C(=O)CO` [Prednisolone], the IC50 against HEV helicase [2] stood at 25.8 µM; at HEV helicase [3] (setting [4]), 4.2 µM.
